Bounds are passed on as bounds.

human mGluR7, sequence (Q14831 35-915): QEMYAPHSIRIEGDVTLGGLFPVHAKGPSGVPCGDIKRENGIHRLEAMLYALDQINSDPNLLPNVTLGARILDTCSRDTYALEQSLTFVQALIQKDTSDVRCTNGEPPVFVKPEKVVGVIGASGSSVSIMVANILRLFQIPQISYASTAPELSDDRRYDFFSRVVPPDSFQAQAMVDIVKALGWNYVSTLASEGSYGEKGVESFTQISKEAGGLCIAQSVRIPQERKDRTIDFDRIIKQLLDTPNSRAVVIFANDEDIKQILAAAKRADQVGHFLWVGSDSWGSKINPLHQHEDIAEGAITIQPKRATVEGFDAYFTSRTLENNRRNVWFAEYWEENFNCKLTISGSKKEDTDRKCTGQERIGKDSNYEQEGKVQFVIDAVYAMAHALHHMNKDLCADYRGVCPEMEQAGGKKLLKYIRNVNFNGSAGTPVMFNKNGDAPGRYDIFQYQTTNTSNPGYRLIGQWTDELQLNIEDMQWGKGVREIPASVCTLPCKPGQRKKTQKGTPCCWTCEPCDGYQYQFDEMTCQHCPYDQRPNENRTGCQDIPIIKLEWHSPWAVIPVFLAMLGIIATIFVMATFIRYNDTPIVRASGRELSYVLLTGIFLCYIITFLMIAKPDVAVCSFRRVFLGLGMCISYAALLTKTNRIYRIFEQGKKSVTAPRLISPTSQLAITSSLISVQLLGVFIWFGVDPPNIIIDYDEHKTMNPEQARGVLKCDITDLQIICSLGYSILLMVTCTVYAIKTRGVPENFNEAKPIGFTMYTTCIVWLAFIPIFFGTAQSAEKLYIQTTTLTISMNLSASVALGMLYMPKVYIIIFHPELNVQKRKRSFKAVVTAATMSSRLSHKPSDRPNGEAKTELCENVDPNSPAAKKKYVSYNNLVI

The assay deals with human mGluR7 (Homo sapiens (Human), UniProt Q14831). The assay is described as follows: Inositol monophosphate production assay (IP1 assay), inhibition of L-AP4 response. In kind it is cell-based. The following applies: mean IC50 from at least two independent experiments; HEK293 cells transiently transfected with mGluR7, Gqtop and EAAC1; IP1 production vs EC80 L-AP4. An excerpt:
Inositol Monophosphate Production Assay (IP1 Assay):
HEK293 cells were transiently transfected with mGluR7 by electroporation and seeded in a poly-ornithine coated 96-well plate at the density of 150 000 cells/well. To allow the monitoring of receptor activity through measurements of inositol monophosphate (IP1) production, mGluR7 was transfected with a chimeric Gq/Gi protein (Gqtop). and was also co-transfected with EAAC1, a glutamate transporter, to avoid influence of extracellular glutamate. Cells were cultured in Dulbecco's Modified Eagle Medium (DMEM, Invitrogen, Cergy Pontoise, France), supplemented with 10% of Fetal Bovine Serum (FBS). Medium was changed by Glutamax™ (Invitrogen, Cergy Pontoise, France) to reduce extracellular glutamate concentration 3 hours before stimulation
IP1 production was determined using the IP-One HTRF kit (CisBio Bioassays), a competitive immunoassay using cryptate-labeled anti-IP1 antibody and d2-labeled IP, according to the manufacturer's recommendations. All points were realized in triplicate.
Data were analyzed with Prism 6 software (GraphPadSoftware, San Diego, Calif.). Typically, in each experiment, a four-parameter concentration-response curve equation was used to fit data and potency (IC50) is estimated as logarithms (log IC50). Data were calculated as % of the control mGluR7 agonist L-AP4 response, defined as the response that is generated upon addition of an EC80-equivalent concentration of L-AP4.
The Table 2 below represents the mean IC50 obtained from at least two independent experiments.
For the molecule `Cc1ccc(C2CCc3c(cnn(-c4cc(C#N)ccn4)c3=O)C2)c(C)c1` (stereo not shown) [Example 23, 2-(6-(2,4-dimethylphenyl)-1-oxo-5,6,7,8-tetrahydrophthalazin-2(1H)-yl)isonicotinonitrile], the 50% inhibitory concentration (IC50) (in general, the concentration that gives 50% inhibition) was below 500 nM.

The molecule `COCCOc1cccc(C2CCc3c(cnn(-c4ncccn4)c3=O)C2)c1C` (stereo not shown) [Example 105, 6-(3-(2-methoxyethoxy)-2-methylphenyl)-2-(pyrimidin-2-yl)-5,6,7,8-tetrahydrophthalazin-1(2H)-one] gave an IC50 of 1000 to 30000 nM.

Consider `Cc1ccc(C2CCc3c(cnn(-c4ncc(Cl)cn4)c3=O)C2)c(C)c1` (stereo not shown) [Example 51, 2-(5-chloropyrimidin-2-yl)-6-(2,4-dimethylphenyl)-5,6,7,8-tetrahydrophthalazin-1(2H)-one], for which the half-maximal inhibitory concentration (IC50) was below 500 nM.

Regarding `Cc1ccc(C2CCc3c(cnn(-c4nccc(C5CC5)n4)c3=O)C2)c(C)c1` (stereo not shown) [Example 37, 2-(4-cyclopropylpyrimidin-2-yl)-6-(2,4-dimethylphenyl)-5,6,7,8-tetrahydrophthalazin-1(2H)-one], the 50% inhibitory concentration (IC50) was below 500 nM.

`COc1cccc(C2CCc3c(cnn(-c4ccccn4)c3=O)C2)c1C` (stereo not shown) [Example 60, 6-(3-methoxy-2-methylphenyl)-2-(pyridin-2-yl)-5,6,7,8-tetrahydrophthalazin-1(2H)-one] had an IC50 below 500 nM.

As for `Cc1ccc(C2CCc3c(cnn(-c4ncc(F)cn4)c3=O)C2)c(C)c1` (stereo not shown) [Example 54, 6-(2,4-dimethylphenyl)-2-(5-fluoropyrimidin-2-yl)-5,6,7,8-tetrahydrophthalazin-1(2H)-one], the IC50 was below 500 nM.

`COc1ccc(C)c(C2CCc3c(cnn(-c4ncccn4)c3=O)C2)c1` (stereo not shown) [Example 80, 6-(5-methoxy-2-methylphenyl)-2-(pyrimidin-2-yl)-5,6,7,8-tetrahydrophthalazin-1(2H)-one] returned an IC50 below 500 nM.

Molecule `COc1cccc(C2CCc3c(cnn(-c4ncccn4)c3=O)C2)c1C` (stereo not shown) [Example 40, 6-(3-methoxy-2-methylphenyl)-2-(pyrimidin-2-yl)-5,6,7,8-tetrahydrophthalazin-1(2H)-one] yielded an IC50 below 500 nM.

Consider `Cc1cc(C)c(C2CCc3c(cnn(-c4ncccn4)c3=O)C2)c(C)c1` (stereo not shown) [Example 89, 6-mesityl-2-(pyrimidin-2-yl)-5,6,7,8-tetrahydrophthalazin-1(2H)-one], for which the IC50 was below 500 nM.

In turn, `COCCCOc1cccc(C2CCc3c(cnn(-c4ncccn4)c3=O)C2)c1C` (stereo not shown) [Example 100, 6-(3-(3-methoxypropoxy)-2-methylphenyl)-2-(pyrimidin-2-yl)-5,6,7,8-tetrahydrophthalazin-1(2H)-one] came in with an IC50 below 500 nM.

With `COc1cc(C)ccc1C1CCc2c(cnn(-c3ncccn3)c2=O)C1` (stereo not shown) [Example 70, 6-(2-methoxy-4-methylphenyl)-2-(pyrimidin-2-yl)-5,6,7,8-tetrahydrophthalazin-1(2H)-one], the IC50 was 500 to 1000 nM.

`Cc1ccc(C2CCc3c(cnn(-c4cscn4)c3=O)C2)c(C)c1` (stereo not shown) [Example 33, 6-(2,4-dimethylphenyl)-2-(thiazol-4-yl)-5,6,7,8-tetrahydrophthalazin-1(2H)-one] came in with an IC50 below 500 nM.

Molecule `CC(=O)Nc1cnc(-n2ncc3c(c2=O)CCC(c2ccc(C)cc2C)C3)nc1` (single isomer, unassigned; (+)) [Example 137, (+)-N-(2-(6-(2,4-dimethylphenyl)-1-oxo-5,6,7,8-tetrahydrophthalazin-2(1H)-yl)pyrimidin-5-yl)acetamide] registered an IC50 below 500 nM.

As for `Cc1c(C2CCc3c(cnn(-c4ncccn4)c3=O)C2)cccc1N(C)C` (stereo not shown) [Example 96, 6-(3-(dimethylamino)-2-methylphenyl)-2-(pyrimidin-2-yl)-5,6,7,8-tetrahydrophthalazin-1(2H)-one], the 50% inhibitory concentration (IC50) was below 500 nM.

`COc1cccc(C2CCc3c(cnn(-c4ncc(C)cn4)c3=O)C2)c1Cl` (stereo not shown) [Example 94, 6-(2-chloro-3-methoxyphenyl)-2-(5-methylpyrimidin-2-yl)-5,6,7,8-tetrahydrophthalazin-1(2H)-one] registered an IC50 below 500 nM.

Regarding `Cc1ccc(C2CCc3c(cnn(-c4ccncc4)c3=O)C2)c(C)c1` (stereo not shown) [Example 50, 6-(2,4-dimethylphenyl)-2-(pyridin-4-yl)-5,6,7,8-tetrahydrophthalazin-1(2H)-one], the IC50 is below 500 nM.

Regarding `COc1cccc(C2CCc3c(cnn(-c4ncc(Cl)cn4)c3=O)C2)c1C` (stereo not shown) [Example 43, 2-(5-chloropyrimidin-2-yl)-6-(3-methoxy-2-methylphenyl)-5,6,7,8-tetrahydrophthalazin-1(2H)-one], the IC50 was below 500 nM.

For `Cc1ccc(C2CCc3c(cnn(-c4ccc(C5CC5)cn4)c3=O)C2)c(C)c1` (stereo not shown) [Example 108, 2-(5-cyclopropylpyridin-2-yl)-6-(2,4-dimethylphenyl)-5,6,7,8-tetrahydrophthalazin-1(2H)-one], the IC50 was below 500 nM.

Take `Cc1ccc(C2CCc3c(cnn(-c4cnccn4)c3=O)C2)c(C)c1` (stereo not shown) [Example 30, 6-(2,4-dimethylphenyl)-2-(pyrazin-2-yl)-5,6,7,8-tetrahydrophthalazin-1(2H)-one]: the IC50 was below 500 nM.

The molecule `Cc1c(OC2CC2)cccc1C1CCc2c(cnn(-c3ncc(Br)cn3)c2=O)C1` (stereo not shown) [Example 126, 2-(5-bromopyrimidin-2-yl)-6-(3-cyclopropoxy-2-methylphenyl)-5,6,7,8-tetrahydrophthalazin-1(2H)-one] had an IC50 below 500 nM.

`COc1cccc(C2CCc3c(cnn(-c4nccc(N5CCOCC5)n4)c3=O)C2)c1C` (stereo not shown) [Example 46, 6-(3-methoxy-2-methylphenyl)-2-(4-morpholinopyrimidin-2-yl)-5,6,7,8-tetrahydrophthalazin-1(2H)-one] displayed an IC50 below 500 nM.

For `COc1cccc(C2CCc3c(cnn(-c4ncc(C)cn4)c3=O)C2)c1C` (stereo not shown) [Example 41, 6-(3-methoxy-2-methylphenyl)-2-(5-methylpyrimidin-2-yl)-5,6,7,8-tetrahydrophthalazin-1(2H)-one], the IC50 is below 500 nM.

`CN1CCc2c(C3CCc4c(cnn(-c5ncccn5)c4=O)C3)cccc21` (stereo not shown) [Example 78, 6-(1-methylindolin-4-yl)-2-(pyrimidin-2-yl)-5,6,7,8-tetrahydrophthalazin-1(2H)-one] had an IC50 below 500 nM.

`Cc1ccc(C2CCc3c(cnn(-c4ncc(N5CCOCC5)cn4)c3=O)C2)c(C)c1` (stereo not shown) [Example 115, 6-(2,4-dimethylphenyl)-2-(5-morpholinopyrimidin-2-yl)-5,6,7,8-tetrahydrophthalazin-1(2H)-one] yielded an IC50 below 500 nM.

In turn, `COc1cc(C2CCc3c(cnn(-c4ccccn4)c3=O)C2)ccc1C` (stereo not shown) [Example 64, 6-(3-methoxy-4-methylphenyl)-2-(pyridin-2-yl)-5,6,7,8-tetrahydrophthalazin-1(2H)-one] registered an IC50 of 1000 to 30000 nM.

The molecule `Cc1ccc(C2CCc3c(cnn(-c4cc(Cl)ccn4)c3=O)C2)c(C)c1` (stereo not shown) [Example 7, 2-(4-chloropyridin-2-yl)-6-(2,4-dimethylphenyl)-5,6,7,8-tetrahydrophthalazin-1(2H)-one] showed an IC50 below 500 nM.

With `COc1ccccc1C1CCc2c(cnn(-c3ccccn3)c2=O)C1` (stereo not shown) [Example 58, 6-(2-methoxyphenyl)-2-(pyridin-2-yl)-5,6,7,8-tetrahydrophthalazin-1(2H)-one], the IC50 was below 500 nM.

Turning to `Cc1ccc(C2CCc3c(cnn(-c4ccccn4)c3=O)C2)c(C)c1` (single isomer, unassigned; (-)) [Example 4, (−)-6-(2,4-dimethyl-phenyl)-2-pyridin-2-yl-5,6,7,8-tetrahydro-2H-phthalazin-1-one], the IC50 lay in the range of 1000 to 30000 nM.

The values are drawn from patent publication US11414395B2, “Heterocyclic compounds as modulators of mGluR7” (PRAGMA Therapeutics, priority 2017, dated 2022).
